Literature values as cited in US6303141A, “Transdermally administrable medicament with ACE inhibitors” (Hexal AG, priority 1995, dated 2001).

Conditions: in vivo

Structure (SMILES) | oral bioavailability
C[C@H](CS)C(=O)N1CCC[C@H]1C(=O)O [captopril] | approximately 70%
CCOC(=O)[C@H](CCc1ccccc1)N[C@H]1CCc2ccccc2N(CC(=O)O)C1=O [benazepril] | 28%
